Legend:
YSK4/MAP3K19 = target: T1, YSK4/MAP3K19 (Homo sapiens, UniProt Q56UN5); test: biochemical; settings: read-out: % enzyme activity, 1 μM; Run 1, Run 2
T1 sequence (Q56UN5 1-1328): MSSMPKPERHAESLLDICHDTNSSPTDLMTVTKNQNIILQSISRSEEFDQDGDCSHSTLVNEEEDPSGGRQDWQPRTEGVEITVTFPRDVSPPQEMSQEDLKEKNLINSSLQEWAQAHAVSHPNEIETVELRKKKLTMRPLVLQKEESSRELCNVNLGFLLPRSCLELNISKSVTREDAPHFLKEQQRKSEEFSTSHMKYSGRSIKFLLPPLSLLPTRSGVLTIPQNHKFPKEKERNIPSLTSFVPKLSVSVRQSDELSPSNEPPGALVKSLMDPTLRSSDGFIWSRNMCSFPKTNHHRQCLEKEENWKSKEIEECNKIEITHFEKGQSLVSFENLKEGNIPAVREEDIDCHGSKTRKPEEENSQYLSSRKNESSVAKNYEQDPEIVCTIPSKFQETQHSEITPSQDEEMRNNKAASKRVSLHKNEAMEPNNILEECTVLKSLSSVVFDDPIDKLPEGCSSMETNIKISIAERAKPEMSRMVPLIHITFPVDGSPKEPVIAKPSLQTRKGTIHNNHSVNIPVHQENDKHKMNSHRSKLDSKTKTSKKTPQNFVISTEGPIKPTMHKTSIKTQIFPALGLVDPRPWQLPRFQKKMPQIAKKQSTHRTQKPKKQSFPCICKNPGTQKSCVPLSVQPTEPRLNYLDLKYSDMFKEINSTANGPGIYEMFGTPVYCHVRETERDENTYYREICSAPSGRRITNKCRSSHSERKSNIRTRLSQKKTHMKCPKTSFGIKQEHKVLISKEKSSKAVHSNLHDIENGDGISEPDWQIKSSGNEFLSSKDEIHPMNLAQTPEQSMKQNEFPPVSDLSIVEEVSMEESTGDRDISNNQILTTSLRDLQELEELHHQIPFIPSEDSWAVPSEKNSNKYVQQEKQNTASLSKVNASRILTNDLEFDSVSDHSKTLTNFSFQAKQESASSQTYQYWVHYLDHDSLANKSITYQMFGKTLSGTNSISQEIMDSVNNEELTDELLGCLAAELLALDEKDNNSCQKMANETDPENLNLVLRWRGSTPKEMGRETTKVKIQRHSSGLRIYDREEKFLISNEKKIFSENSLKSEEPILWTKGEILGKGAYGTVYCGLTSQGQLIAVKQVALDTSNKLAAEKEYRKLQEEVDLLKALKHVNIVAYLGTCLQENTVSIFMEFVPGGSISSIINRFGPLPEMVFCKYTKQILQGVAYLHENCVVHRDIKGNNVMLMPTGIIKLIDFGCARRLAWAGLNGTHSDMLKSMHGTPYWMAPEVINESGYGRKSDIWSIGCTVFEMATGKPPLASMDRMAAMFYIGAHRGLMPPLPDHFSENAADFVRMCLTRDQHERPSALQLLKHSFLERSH

CDK1/cyclin B = CDK1/cyclin B (Homo sapiens, UniProt P06493); settings: 1 μM; Run 1, Run 2
MYO3b = target: T2, MYO3b (Homo sapiens, UniProt Q8WXR4); settings: 1 μM; Run 1, Run 2
T2 sequence (Q8WXR4 1-1341): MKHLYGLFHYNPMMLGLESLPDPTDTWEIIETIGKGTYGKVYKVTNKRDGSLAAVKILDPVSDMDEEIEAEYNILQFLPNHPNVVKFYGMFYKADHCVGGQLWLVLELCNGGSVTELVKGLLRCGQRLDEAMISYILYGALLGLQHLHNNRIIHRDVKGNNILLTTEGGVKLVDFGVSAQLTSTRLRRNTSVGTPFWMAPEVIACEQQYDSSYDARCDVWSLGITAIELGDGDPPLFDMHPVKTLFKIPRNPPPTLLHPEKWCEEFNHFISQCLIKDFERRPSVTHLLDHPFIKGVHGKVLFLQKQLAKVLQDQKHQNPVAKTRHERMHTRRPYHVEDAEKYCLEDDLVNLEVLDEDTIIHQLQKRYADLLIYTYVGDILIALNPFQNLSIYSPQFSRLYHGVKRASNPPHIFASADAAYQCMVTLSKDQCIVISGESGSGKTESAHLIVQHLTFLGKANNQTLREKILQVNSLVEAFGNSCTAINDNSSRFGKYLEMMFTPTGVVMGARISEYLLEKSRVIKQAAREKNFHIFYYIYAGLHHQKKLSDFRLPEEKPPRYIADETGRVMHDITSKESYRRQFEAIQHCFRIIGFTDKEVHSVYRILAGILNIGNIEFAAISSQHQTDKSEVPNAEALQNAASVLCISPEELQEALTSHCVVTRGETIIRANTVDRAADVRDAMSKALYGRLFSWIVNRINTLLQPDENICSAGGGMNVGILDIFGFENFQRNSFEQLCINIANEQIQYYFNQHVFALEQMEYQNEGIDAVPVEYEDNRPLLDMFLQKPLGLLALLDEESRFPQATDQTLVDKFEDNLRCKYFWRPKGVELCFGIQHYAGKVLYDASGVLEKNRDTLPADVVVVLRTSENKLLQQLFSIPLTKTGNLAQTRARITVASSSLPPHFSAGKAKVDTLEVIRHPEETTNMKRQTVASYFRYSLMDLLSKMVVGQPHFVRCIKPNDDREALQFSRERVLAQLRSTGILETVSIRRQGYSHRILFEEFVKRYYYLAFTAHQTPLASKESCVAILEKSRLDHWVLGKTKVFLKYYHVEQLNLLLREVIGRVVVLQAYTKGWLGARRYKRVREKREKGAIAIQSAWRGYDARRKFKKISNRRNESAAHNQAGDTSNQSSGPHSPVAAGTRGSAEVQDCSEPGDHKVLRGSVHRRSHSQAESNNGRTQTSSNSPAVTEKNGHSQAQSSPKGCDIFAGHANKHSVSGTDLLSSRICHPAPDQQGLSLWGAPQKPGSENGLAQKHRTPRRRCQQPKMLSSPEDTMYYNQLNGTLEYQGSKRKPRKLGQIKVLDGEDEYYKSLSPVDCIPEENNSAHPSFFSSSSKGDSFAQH

FER = FER (Homo sapiens, UniProt P16591); settings: 1 μM; Run 1, Run 2
FER, sequence (P16591 whole entry): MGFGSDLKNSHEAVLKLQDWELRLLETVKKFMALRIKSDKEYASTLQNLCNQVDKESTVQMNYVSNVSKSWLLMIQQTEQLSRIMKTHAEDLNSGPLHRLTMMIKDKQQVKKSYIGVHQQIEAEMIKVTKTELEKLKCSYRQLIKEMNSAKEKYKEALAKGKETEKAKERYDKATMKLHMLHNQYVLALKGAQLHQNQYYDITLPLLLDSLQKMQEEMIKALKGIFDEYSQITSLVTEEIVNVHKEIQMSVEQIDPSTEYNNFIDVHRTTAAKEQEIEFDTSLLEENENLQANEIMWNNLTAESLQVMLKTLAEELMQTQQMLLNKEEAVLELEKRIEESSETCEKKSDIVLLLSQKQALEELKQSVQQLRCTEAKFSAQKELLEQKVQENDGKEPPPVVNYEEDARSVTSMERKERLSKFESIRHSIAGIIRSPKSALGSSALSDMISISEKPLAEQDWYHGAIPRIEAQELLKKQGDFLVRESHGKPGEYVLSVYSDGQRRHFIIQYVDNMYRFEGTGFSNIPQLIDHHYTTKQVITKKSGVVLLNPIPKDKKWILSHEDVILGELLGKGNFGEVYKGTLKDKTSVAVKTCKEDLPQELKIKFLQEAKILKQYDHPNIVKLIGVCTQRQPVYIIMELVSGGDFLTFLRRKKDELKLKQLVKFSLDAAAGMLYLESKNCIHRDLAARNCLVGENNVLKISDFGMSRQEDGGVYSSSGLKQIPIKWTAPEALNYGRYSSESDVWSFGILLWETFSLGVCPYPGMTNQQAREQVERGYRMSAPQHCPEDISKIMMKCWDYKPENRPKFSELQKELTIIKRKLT

CDK1/cyclin B, sequence (P06493 whole entry): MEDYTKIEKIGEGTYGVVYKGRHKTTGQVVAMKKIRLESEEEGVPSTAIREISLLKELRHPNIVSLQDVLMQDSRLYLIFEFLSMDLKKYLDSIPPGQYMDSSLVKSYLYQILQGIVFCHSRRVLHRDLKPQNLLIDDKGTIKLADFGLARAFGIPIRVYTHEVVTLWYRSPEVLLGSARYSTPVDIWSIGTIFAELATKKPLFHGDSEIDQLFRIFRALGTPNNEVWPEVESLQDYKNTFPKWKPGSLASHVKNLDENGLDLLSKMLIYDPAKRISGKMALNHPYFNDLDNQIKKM
CDK1/cyclin B, sequence (P14635 whole entry partner): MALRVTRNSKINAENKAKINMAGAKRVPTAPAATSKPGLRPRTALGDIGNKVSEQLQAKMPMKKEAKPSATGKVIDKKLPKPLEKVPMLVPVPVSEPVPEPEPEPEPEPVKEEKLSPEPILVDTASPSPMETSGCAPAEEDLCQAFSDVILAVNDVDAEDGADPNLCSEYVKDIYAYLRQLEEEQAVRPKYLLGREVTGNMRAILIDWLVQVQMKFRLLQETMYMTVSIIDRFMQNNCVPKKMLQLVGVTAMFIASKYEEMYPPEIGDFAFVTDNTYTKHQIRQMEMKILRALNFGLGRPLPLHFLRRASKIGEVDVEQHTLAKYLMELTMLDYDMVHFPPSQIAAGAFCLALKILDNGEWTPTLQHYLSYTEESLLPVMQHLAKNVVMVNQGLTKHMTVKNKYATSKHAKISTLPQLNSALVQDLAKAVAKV

Row | SMILES | remaining activity at 1 µM (YSK4/MAP3K19) [%] | % enzyme activity (CDK1/cyclin B) [%] | % enzyme activity (MYO3b) [%] | % enzyme activity (FER) [%]
1 | COc1cc(-c2cncc(-c3ccc(N4CCN(C)CC4)cc3)c2C)cc(F)c1C(N)=O [Compound 26a, 2-Fluoro-6-methoxy-4-(4-methyl-5-(4-(4-methylpiperazin-1-yl)phenyl)pyridin-3-yl)benzamide] | 98.2 | 92.35 | 81.31 | 86.16
2 | COc1cc(-c2cncc(-c3ccc(N4C[C@@H](C)N(C)[C@@H](C)C4)cc3)c2C)cc(F)c1C(N)=O [Compound 26c, 2-Fluoro-6-methoxy-4-(4-methyl-5-(4-((3R,5S)-3,4,5-trimethylpiperazin-1-yl)phenyl)pyridin-3-yl)benzamide] | 97 | 91.98 | 85.13 | 84.91

Reference: article PMC8213057, “Targeting ALK2: An Open Science Approach to Developing Therapeutics for the Treatment of Diffuse Intrinsic Pontine Glioma” (Journal of Medicinal Chemistry, 2020)
